This is an account of results in ChEMBL document CHEMBL6120933, “Improving Anti-HIV activity and pharmacokinetics of enfuvirtide (T20) by modification with oligomannose” (Eur J Med Chem, 2024).

The subject of the test is Human immunodeficiency virus 1. In words: Antiviral activity against HIV-1 pseudovirus infected in HEK293T cell transfected with DC-SIGN and luciferase assessed as inhibition of viral entry into cells at 500 uM preincubated with cells for 2 hrs followed by virus addition and measured after 4 hrs by p24 ELISA relative to control. The format is functional. The settings on record: Human immunodeficiency virus 1, HEK-293T, time 6 hrs.

Regarding `[N-]=[N+]=NCCO[C@H]1O[C@H](CO[C@H]2O[C@H](CO)[C@@H](O)[C@H](O)[C@@H]2O[C@H]2O[C@H](CO)[C@@H](O)[C@H](O)[C@@H]2O)[C@@H](O)[C@H](O[C@H]2O[C@H](CO)[C@@H](O)[C@H](O)[C@@H]2O[C@H]2O[C@H](CO)[C@@H](O)[C@H](O)[C@@H]2O)[C@@H]1O`, the inhibition (as a rule, the change of the read-out against control, counted positive when it falls) at 500 µM amounted to 18%.
